# Measurements published in ChEMBL document CHEMBL1649191, “Genetic organization of transposase regions surrounding blaKPC carbapenemase genes on plasmids from Klebsiella strains isolated in a New York City hospital” (2009).
# Experiments:
# Type in all cases: functional
# Klebsiella pneumoniae [1] = experiment: Antimicrobial activity against blaKPC-positive Klebsiella pneumoniae S2 by broth microdilution method
# Klebsiella pneumoniae [2] = experiment: Antimicrobial activity against blaKPC-positive Klebsiella pneumoniae S3 by broth microdilution method
# Klebsiella pneumoniae [3] = experiment: Antimicrobial activity against blaKPC-positive Klebsiella pneumoniae S5 by broth microdilution method
# Klebsiella pneumoniae [4] = experiment: Antimicrobial activity against blaKPC-positive Klebsiella pneumoniae S6 by broth microdilution method
# Klebsiella pneumoniae [5] = experiment: Antimicrobial activity against blaKPC-positive Klebsiella pneumoniae S7 by broth microdilution method
# Klebsiella pneumoniae [6] = experiment: Antimicrobial activity against blaKPC-positive Klebsiella pneumoniae S8 by broth microdilution method
# Klebsiella pneumoniae [7] = experiment: Antimicrobial activity against blaKPC-positive Klebsiella pneumoniae S9 by broth microdilution method
# Klebsiella pneumoniae [8] = experiment: Antimicrobial activity against blaKPC-positive Klebsiella pneumoniae S10 by broth microdilution method
# Klebsiella pneumoniae [9] = experiment: Antimicrobial activity against blaKPC-positive Klebsiella pneumoniae S12 by broth microdilution method
# Klebsiella oxytoca = experiment: Antimicrobial activity against blaKPC-positive Klebsiella oxytoca S13 by broth microdilution method
# Klebsiella pneumoniae [10] = experiment: Antimicrobial activity against blaKPC-positive Klebsiella pneumoniae S14 by broth microdilution method
# Klebsiella pneumoniae [11] = experiment: Antimicrobial activity against blaKPC-positive Klebsiella pneumoniae S15 by broth microdilution method
# Klebsiella pneumoniae [12] = experiment: Antimicrobial activity against blaKPC-positive Klebsiella pneumoniae S1 by broth microdilution method
# Klebsiella pneumoniae [13] = experiment: Antimicrobial activity against blaKPC-positive Klebsiella pneumoniae S4 by broth microdilution method
# Klebsiella pneumoniae [14] = experiment: Antimicrobial activity against blaKPC-positive Klebsiella pneumoniae S11 by broth microdilution method
Compound,MIC (Klebsiella pneumoniae [1]) [µg/mL],MIC (Klebsiella pneumoniae [2]) [µg/mL],MIC (Klebsiella pneumoniae [3]) [µg/mL],MIC (Klebsiella pneumoniae [4]) [µg/mL],MIC (Klebsiella pneumoniae [5]) [µg/mL],MIC (Klebsiella pneumoniae [6]) [µg/mL],MIC (Klebsiella pneumoniae [7]) [µg/mL],MIC (Klebsiella pneumoniae [8]) [µg/mL],MIC (Klebsiella pneumoniae [9]) [µg/mL],MIC (Klebsiella oxytoca) [µg/mL],MIC (Klebsiella pneumoniae [10]) [µg/mL],MIC (Klebsiella pneumoniae [11]) [µg/mL],MIC (Klebsiella pneumoniae [12]) [µg/mL],MIC (Klebsiella pneumoniae [13]) [µg/mL],MIC (Klebsiella pneumoniae [14]) [µg/mL]
GENTAMICIN,2,2,1,1,8,8,1,8,16,8,32,2,–,–,–
NCC[C@H](O)C(=O)N[C@@H]1C[C@H](N)[C@@H](O[C@H]2O[C@H](CN)[C@@H](O)[C@H](O)[C@H]2O)[C@H](O)[C@H]1O[C@H]1O[C@H](CO)[C@@H](O)[C@H](N)[C@H]1O [AMIKACIN],32,32,64,32,1,> 64,16,> 64,16,4,32,32,16,1,2
CC(C)(O/N=C(\C(=O)N[C@@H]1C(=O)N2C(C(=O)[O-])=C(C[n+]3ccccc3)CS[C@H]12)c1csc(N)n1)C(=O)O [CEFTAZIDIME],> 64,64,> 64,> 64,32,> 64,> 64,> 64,> 64,> 64,> 64,> 64,> 64,8,16
O=C(O)c1cn(C2CC2)c2cc(N3CCNCC3)c(F)cc2c1=O [CIPROFLOXACIN],> 64,> 64,> 64,> 64,32,> 64,> 64,> 64,< 0.06,0.06,64,> 64,> 64,0.06,1
C[C@@H](O)[C@H]1C(=O)N2C(C(=O)O)=C(SCCNC=N)C[C@H]12 [IMIPENEM ANHYDROUS],32,32,64,32,32,64,> 64,64,32,32,> 64,64,32,8,32
C[C@@H](O)[C@H]1C(=O)N2C(C(=O)O)=C(S[C@@H]3CN[C@H](C(=O)N(C)C)C3)[C@H](C)[C@H]12 [MEROPENEM],64,64,64,64,32,64,> 64,64,32,32,64,64,> 64,–,32
CO/N=C(\C(=O)N[C@@H]1C(=O)N2C(C(=O)[O-])=C(C[N+]3(C)CCCC3)CS[C@H]12)c1csc(N)n1,> 64,> 64,> 64,> 64,> 64,64,> 64,> 64,> 64,> 64,> 64,> 64,32,64,> 64
CN(C)c1cc(NC(=O)CNC(C)(C)C)c(O)c2c1C[C@H]1C[C@H]3[C@H](N(C)C)C(O)=C(C(N)=O)C(=O)[C@@]3(O)C(O)=C1C2=O [TIGECYCLINE],1,1,1,4,0.5,2,2,1,0.25,0.25,0.25,1,1,0.5,0.25
C[C@H]1[C@H](NC(=O)/C(=N\OC(C)(C)C(=O)O)c2csc(N)n2)C(=O)N1S(=O)(=O)O [AZTREONAM],> 64,> 64,> 64,> 64,> 64,> 64,> 64,> 64,> 64,> 64,> 64,> 64,> 64,> 64,> 64
POLYMYXIN B,8,8,4,16,16,8,4,4,2,4,1,4,2,8,16
